Experimental data from US7375083B2, “Pharmaceutical compositions for prevention of overdose or abuse” (Shire LLC, priority 2003, dated 2008).
Values joined by “and” are separate entries in the source; they are usually repeats but may differ in a detail not shown here. Equal values may be shown once. Read-outs that look alike come from different tables or passages of the source.

Legend:
[1] = Crossover pharmacokinetics in dogs, oral vs 30-min intravenous infusion, LC-MS/MS; type: in vivo, male beagle dogs; settings: for AUC(0-inf): read-out: AUC(inf) of L-lysine-d-amphetamine; for Cmax: read-out: Cmax of L-lysine-d-amphetamine; for MRT: read-out: MRT of L-lysine-d-amphetamine; for Vd: read-out: Vss of L-lysine-d-amphetamine; for half-life: read-out: t1/2 of L-lysine-d-amphetamine (converted)
Excerpt: This was a non-randomized, two-treatment crossover study. All animals were maintained on their normal diet and were fasted overnight prior to each dose administration. L-lysine-d-amphetamine dose was based on the body weight measured on the morning of each dosing day. The actual dose delivered was based on syringe weight before and after dosing. Serial blood samples were obtained from each animal by direct venipuncture of a jugular vein using vacutainer tubes containing sodium heparin as the anticoagulant. Derived plasma samples were stored frozen until shipment to the Quest Pharmaceutical Services, Inc. (Newark, Del.). Pharmacokinetic analysis of the plasma assay results was conducted by Calvert. Animals were treated as follows:
Oral: The test article was administered to each animal via a single oral gavage. On Day 1, animals received the oral dose by gavage using an esophageal tube attached to a syringe. Dosing tubes were flushed with approximately 20 mL tap water to ensure the required dosing solution was delivered.
Intravenous: On Day 8, animals received L-lysine-d-amphetamine as a single 30-minute intravenous infusion into a cephalic vein.
Blood: Serial blood samples (2 mL) were collected using venipuncture tubes containing sodium heparin. Blood samples were taken at 0, 0.25, 0.5, 1, 2, 4, 8, 12, 24, 48, and 72 hours post-oral dosing. […] Collected blood samples were chilled immediately.
Plasma: Plasma samples were obtained by centrifugation of blood samples. Duplicate plasma samples (about 0.2 mL each) were transferred into prelabeled plastic vials and stored frozen at approximately −70° C.
Microsoft Excel (Version 6, Microsoft Corp., Redmond, Wash.) was used for calculation of mean plasma concentration and graphing of the plasma concentration-time data. Pharmacokinetic analysis (non-compartmental) was performed using the WinNonlin® software program (Version 4.1, Pharsight, Inc. Mountain View, Calif.). The maximum concentration, Cmax, and the time to Cmax, Tmax, were observed values. The area under the plasma concentration-time curve (AUC) was determined using linear-log trapezoidal rules. The apparent terminal rate constant (λz) was derived using linear least-squares regression with visual inspection of the data to determine the appropriate number of points (minimum of 3 data points) for calculating λz. The AUC(0-inf) was calculated as the sum of AUC(0-t) and Cpred/λz, where Cpred was the predicted concentration at the time of the last quantifiable concentration. The plasma clearance (CL/F) was determined as the ratio of Dose/AUC (0-inf). The mean residence time (MRT) was calculated as the ratio of AUMC(0-inf)/AUC (0-inf), where AUMC(0-inf) was the area under the first moment curve from the time zero to infinity. The volume of distribution at steady state (Vss) was estimated as CL*MRT. Half-life was calculated as In2/λz. The oral bioavailability (F) was calculated as the ratio of AUC(0-inf) following oral dosing to AUC(0-inf) following intravenous dosing. Descriptive statistics (mean and standard deviation) of the pharmacokinetic parameters were calculated using Microsoft Excel.
Blood samples were collected up to 24 and 72 hour after the intravenous and oral does, respectively. Plasma samples were analyzed using a LC-MS/MS assay which provided an LLOQ of 1 ng/mL for both analytes.

[2] = Intranasal bioavailability in rats, plasma d-amphetamine by ELISA; settings: rat, 3 mg/kg
[3] = male beagle dogs 1-3 and Mean, 30-min iv infusion, 2 mg/kg/h (free form), 2 mg/kg
[4] = male beagle dogs 1-3 and Mean, oral, 2 mg/kg (free form), 2 mg/kg
[5] = male, beagle, dog, plasma, iv, 1 mg/kg, male beagle dog, IV, 1 mg/kg d-amphetamine base, mean
[6] = male, beagle, dog, plasma, iv, 2 mg/kg, male beagle dogs 1-3 and Mean, 30-min iv infusion, 2 mg/kg/h (free form)
[7] = male, beagle, dog, plasma, po, 1 mg/kg, male beagle dog, oral, 1 mg/kg d-amphetamine base, mean

For `CC(Cc1ccccc1)NC(=O)C(N)CCCCN` [L-lysine-d-amphetamine, 2,6-diaminohexanoic acid-(1-methyl-2-phenylethyl)-amide], the Tmax ([1]; dog, plasma, male beagle dogs 1-3 and median, 30-min iv infusion, 2 mg/kg/h (free form), read-out: Tmax of L-lysine-d-amphetamine) was 29.4 min, the Tmax ([1]; dog, plasma, male beagle dogs 1-3 and median, oral, 2 mg/kg (free form), read-out: Tmax of L-lysine-d-amphetamine) was 30 min and the “AUC(0-t) of L-lysine-d-amphetamine” value [1, 3] was 898.2 ng·h/mL. The “AUC(inf) of L-lysine-d-amphetamine” value [1, 3] was 900.2 ng·h/mL and 1076.1 ng·h/mL, the “CL of L-lysine-d-amphetamine” value [1, 3] was 37.03 mL/min/kg and 30.98 mL/min/kg and the “Cmax of L-lysine-d-amphetamine” value [1, 3] was 1470.3 ng/mL. The “MRT of L-lysine-d-amphetamine” value [1, 3] was 21.6 min and 19.2 min, the “Vss of L-lysine-d-amphetamine” value [1, 3] was 0.8074 L/kg and the “t1/2 of L-lysine-d-amphetamine” value [1, 3] was 43.2 min. The “AUC(0-t) of L-lysine-d-amphetamine” value [1, 4] was 318.0 ng·h/mL, the “AUC(inf) of L-lysine-d-amphetamine” value [1, 4] was 312.0 ng·h/mL and 277.1 ng·h/mL and the “CL/F of L-lysine-d-amphetamine” value [1, 4] was 106.8 mL/min/kg and 120.3 mL/min/kg. The “F of L-lysine-d-amphetamine” value [1, 4] was 34.3% and 34.0% and 30.8%, the “MRT of L-lysine-d-amphetamine” value [1, 4] was 40.8 min and the “t1/2 of L-lysine-d-amphetamine” value [1, 4] was 27 min and 14.4 min. The AUC(0-inf) [1, 5] was 964 ng·h/mL, the Cmax [1, 5] was 1650 ng/mL and the MRT [1, 5] was 19.8 min. The Vd [1, 5] was 0.689 L/kg, the half-life [1, 5] was 52.8 min and the Tmax ([1]; male, beagle, dog, plasma, iv, 1 mg/kg, read-out: Tmax of L-lysine-d-amphetamine (median)) was 29.4 min. For the same compound, the AUC(0-t) ([1]; male, beagle, dog, plasma, iv, 2 mg/kg, male beagle dogs 1-3 and Mean, 30-min iv infusion, 2 mg/kg/h (free form), read-out: AUC(0-t) of L-lysine-d-amphetamine) was 914 ng·h/mL, the AUC(0-inf) [1, 6] was 917 ng·h/mL and the clearance ([1]; male, beagle, dog, plasma, iv, 2 mg/kg, male beagle dogs 1-3 and Mean, 30-min iv infusion, 2 mg/kg/h (free form), read-out: CL of L-lysine-d-amphetamine (converted)) was 36.4 mL/min/kg. For the same compound, the Cmax [1, 6] was 1650 ng/mL, the MRT [1, 6] was 18 min and the Vd [1, 6] was 0.656 L/kg. The half-life [1, 6] was 63 min, the AUC(0-inf) [1, 7] was 319 ng·h/mL and the CL/F ([1]; male, beagle, dog, plasma, po, 1 mg/kg, male beagle dog, oral, 1 mg/kg d-amphetamine base, mean, read-out: CL/F of L-lysine-d-amphetamine (converted)) was 106 mL/min/kg. It also gave a Cmax [1, 7] of 328 ng/mL, an MRT [1, 7] of 48.6 min and a half-life [1, 7] of 23.4 min. The bioavailability ([1]; male, beagle, dog, plasma, po, 1 mg/kg, read-out: F (absolute oral bioavailability) of L-lysine-d-amphetamine) was 33%, the Tmax ([1]; male, beagle, dog, plasma, po, 1 mg/kg, read-out: Tmax of L-lysine-d-amphetamine (median)) was 30 min and the “Release of d-amphetamine into circulation” value [2] was “did not release any significant amount of d-amphetamine”.
